Experimental findings from ChEMBL document CHEMBL4393697, “Lipophilic efficient phenylthiazoles with potent undecaprenyl pyrophosphatase inhibitory activity” (Eur J Med Chem, 2019) are described below.

For data set [1], the system named is Enterococcus faecium. Description: Antibacterial activity against vancomycin resistant Enterococcus faecium ATCC 700221 assessed as reduction in bacterial cell growth incubated for 18 to 20 hrs by broth microdilution method. Type of data set: functional. For orientation: In broth dilution the organism is exposed to a series of concentrations in liquid medium.

Data set [2] relates to Staphylococcus aureus. Description: Bactericidal activity against vancomycin resistant Staphylococcus aureus VRS10 assessed as reduction in bacterial cell growth incubated for 18 to 20 hrs followed by re-plating on tryptic soy agar plates at 37 degC for 18 hrs by broth microdilution assay. Type of data set: functional.
The subject of data set [3] is Pseudomonas aeruginosa. Description: Bactericidal activity against Pseudomonas aeruginosa ATCC 15442 assessed as reduction in bacterial cell growth incubated for 18 to 20 hrs followed by re-plating on tryptic soy agar plates at 37 degC for 18 hrs by broth microdilution assay. The class given is functional.
The subject of data set [4] is Staphylococcus aureus. Description: Antibacterial activity against vancomycin resistant Staphylococcus aureus VRS11a assessed as reduction in bacterial cell growth incubated for 18 to 20 hrs by broth microdilution method. The class given is functional.
Data set [5] deals with Listeria monocytogenes. Description: Bactericidal activity against Listeria monocytogenes ATCC 19111 assessed as reduction in bacterial cell growth incubated for 18 to 20 hrs followed by re-plating on tryptic soy agar plates at 37 degC for 18 hrs by broth microdilution assay. The class given is functional.
Data set [6] has as its system Escherichia coli. The data set is described as follows: Antibacterial activity against Escherichia coli BW25113 assessed as reduction in bacterial cell growth incubated for 18 to 20 hrs by broth microdilution method. Type of data set: functional.
The test system of data set [7] is Staphylococcus aureus. Description: Bactericidal activity against methicillin-resistant Staphylococcus aureus USA300 assessed as reduction in bacterial cell growth incubated for 18 to 20 hrs followed by re-plating on tryptic soy agar plates at 37 degC for 18 hrs by broth microdilution assay. Type of data set: functional.
In data set [8] the test system is Staphylococcus aureus. The data set is described as follows: Antibacterial activity against methicillin resistant Staphylococcus aureus USA400 assessed as reduction in bacterial cell growth incubated for 18 to 20 hrs by broth microdilution method. The class given is functional.
The test system of data set [9] is Pseudomonas aeruginosa. The data set is described as follows: Antibacterial activity against Pseudomonas aeruginosa ATCC 15442 assessed as reduction in bacterial cell growth incubated for 18 to 20 hrs by broth microdilution method. Type of data set: functional.
Data set [10] is described as follows: Solubility of compound in PBS after 2 hrs by turbidity based absorbance analysis. Type of data set: physicochemical.
Data set [11] concerns Listeria monocytogenes. The data set is described as follows: Antibacterial activity against Listeria monocytogenes ATCC 19111 assessed as reduction in bacterial cell growth incubated for 18 to 20 hrs by broth microdilution method. Type of data set: functional.
Data set [12] deals with Staphylococcus aureus. The data set is described as follows: Antibacterial activity against Staphylococcus aureus ATCC 6538 assessed as reduction in bacterial cell growth incubated for 18 to 20 hrs by broth microdilution method. The class given is functional.
The test system of data set [13] is Acinetobacter baumannii. The data set is described as follows: Antibacterial activity against Acinetobacter baumannii ATCC 19606 assessed as reduction in bacterial cell growth incubated for 18 to 20 hrs by broth microdilution method. Type of data set: functional.
In data set [14] the test system is Streptococcus pneumoniae. The data set is described as follows: Antibacterial activity against Methicillin resistant Streptococcus pneumoniae ATCC 700677 assessed as reduction in bacterial cell growth incubated for 18 to 20 hrs by broth microdilution method. The class given is functional.
Data set [15] has as its system Staphylococcus aureus. Description: Antibacterial activity against methicillin resistant Staphylococcus aureus NRS119 assessed as reduction in bacterial cell growth incubated for 18 to 20 hrs by broth microdilution method. Type of data set: functional.
Data set [16] concerns Enterococcus faecalis. The data set is described as follows: Bactericidal activity against vancomycin resistant Enterococcus faecalis ATCC 51299 assessed as reduction in bacterial cell growth incubated for 18 to 20 hrs followed by re-plating on tryptic soy agar plates at 37 degC for 18 hrs by broth microdilution assay. The class given is functional.
Data set [17] deals with Enterococcus faecalis. Description: Antibacterial activity against vancomycin resistant Enterococcus faecalis ATCC 51299 assessed as reduction in bacterial cell growth incubated for 18 to 20 hrs by broth microdilution method. The class given is functional.
Data set [18] deals with Staphylococcus aureus. The data set is described as follows: Bactericidal activity against Staphylococcus aureus NRS107 assessed as reduction in bacterial cell growth incubated for 18 to 20 hrs followed by re-plating on tryptic soy agar plates at 37 degC for 18 hrs by broth microdilution assay. The class given is functional.
Data set [19] relates to Staphylococcus aureus. Description: Antibacterial activity against Staphylococcus aureus NRS107 assessed as reduction in bacterial cell growth incubated for 18 to 20 hrs by broth microdilution method. The class given is functional.
The test system of data set [20] is Streptococcus pneumoniae. Description: Bactericidal activity against Methicillin resistant Streptococcus pneumoniae ATCC 700677 assessed as reduction in bacterial cell growth incubated for 18 to 20 hrs followed by re-plating on tryptic soy agar plates at 37 degC for 18 hrs by broth microdilution assay. Type of data set: functional.
For data set [21], the system named is Staphylococcus aureus. Description: Bactericidal activity against methicillin resistant Staphylococcus aureus NRS119 assessed as reduction in bacterial cell growth incubated for 18 to 20 hrs followed by re-plating on tryptic soy agar plates at 37 degC for 18 hrs by broth microdilution assay. Type of data set: functional.
The test system of data set [22] is Streptococcus pneumoniae. The data set is described as follows: Antibacterial activity against Cephalosporin resistant Streptococcus pneumoniae ATCC 51916 assessed as reduction in bacterial cell growth incubated for 18 to 20 hrs by broth microdilution method. Type of data set: functional.
The test system of data set [23] is Staphylococcus epidermidis. Description: Antibacterial activity against methicillin resistant Staphylococcus epidermidis NRS101 assessed as reduction in bacterial cell growth incubated for 18 to 20 hrs by broth microdilution method. Type of data set: functional.
The next data set deals with J774. Description: Cytotoxicity against mouse J774 assessed as reduction in cell viability at 16 ug/ml incubated for 24 hrs by MTS assay. The class given is cell-based. To be noted: j774, 24 h.
Data set [24] deals with Escherichia coli. Description: BActericidal activity against Escherichia coli BW25113 assessed as reduction in bacterial cell growth incubated for 18 to 20 hrs followed by re-plating on tryptic soy agar plates at 37 degC for 18 hrs by broth microdilution assay. The class given is functional.
Data set [25] has as its system Staphylococcus aureus. The data set is described as follows: Antibacterial activity against methicillin-resistant Staphylococcus aureus USA300 assessed as reduction in bacterial cell growth incubated for 18 to 20 hrs by broth microdilution method. The class given is functional.
Data set [26] concerns Streptococcus pneumoniae. The data set is described as follows: Bactericidal activity against Cephalosporin resistant Streptococcus pneumoniae ATCC 51916 assessed as reduction in bacterial cell growth incubated for 18 to 20 hrs followed by re-plating on tryptic soy agar plates at 37 degC for 18 hrs by broth microdilution assay. Type of data set: functional.
Data set [27] concerns Staphylococcus aureus. Description: Bactericidal activity against vancomycin resistant Staphylococcus aureus VRS12 assessed as reduction in bacterial cell growth incubated for 18 to 20 hrs followed by re-plating on tryptic soy agar plates at 37 degC for 18 hrs by broth microdilution assay. Type of data set: functional.
For data set [28], the system named is Staphylococcus aureus. The data set is described as follows: Antibacterial activity against vancomycin resistant Staphylococcus aureus VRS10 assessed as reduction in bacterial cell growth incubated for 18 to 20 hrs by broth microdilution method. The class given is functional.
The subject of data set [29] is Staphylococcus aureus. Description: Antibacterial activity against vancomycin resistant Staphylococcus aureus VRS12 assessed as reduction in bacterial cell growth incubated for 18 to 20 hrs by broth microdilution method. Type of data set: functional.
Data set [30] concerns Klebsiella pneumoniae. The data set is described as follows: Antibacterial activity against Klebsiella pneumoniae BAA-1706 assessed as reduction in bacterial cell growth incubated for 18 to 20 hrs by broth microdilution method. Type of data set: functional.
Data set [31] deals with Klebsiella pneumoniae. Description: Bactericidal activity against Klebsiella pneumoniae BAA-1706 assessed as reduction in bacterial cell growth incubated for 18 to 20 hrs followed by re-plating on tryptic soy agar plates at 37 degC for 18 hrs by broth microdilution assay. The class given is functional.
For data set [32], the system named is Enterococcus faecium. Description: Bactericidal activity against vancomycin resistant Enterococcus faecium ATCC 700221 assessed as reduction in bacterial cell growth incubated for 18 to 20 hrs followed by re-plating on tryptic soy agar plates at 37 degC for 18 hrs by broth microdilution assay. Type of data set: functional.
The subject of data set [33] is Staphylococcus aureus. Description: Bactericidal activity against Staphylococcus aureus ATCC 6538 assessed as reduction in bacterial cell growth incubated for 18 to 20 hrs followed by re-plating on tryptic soy agar plates at 37 degC for 18 hrs by broth microdilution assay. The class given is functional.
The subject of data set [34] is Staphylococcus epidermidis. Description: Bactericidal activity against methicillin resistant Staphylococcus epidermidis NRS101 assessed as reduction in bacterial cell growth incubated for 18 to 20 hrs followed by re-plating on tryptic soy agar plates at 37 degC for 18 hrs by broth microdilution assay. The class given is functional.
Data set [35] deals with Staphylococcus aureus. Description: Bactericidal activity against vancomycin resistant Staphylococcus aureus VRS11a assessed as reduction in bacterial cell growth incubated for 18 to 20 hrs followed by re-plating on tryptic soy agar plates at 37 degC for 18 hrs by broth microdilution assay. The class given is functional.
Data set [36] concerns Escherichia coli. Description: Antibacterial activity against Escherichia coli JW55031 harboring deltatolC mutant assessed as reduction in bacterial cell growth incubated for 18 to 20 hrs by broth microdilution method. The class given is functional.
For data set [37], the system named is Escherichia coli. The data set is described as follows: Bactericidal activity against Escherichia coli JW55031 harboring deltatolC mutant assessed as reduction in bacterial cell growth incubated for 18 to 20 hrs followed by re-plating on tryptic soy agar plates at 37 degC for 18 hrs by broth microdilution assay. The class given is functional.
Data set [38] relates to Acinetobacter baumannii. The data set is described as follows: Bactericidal activity against Acinetobacter baumannii ATCC 19606 assessed as reduction in bacterial cell growth incubated for 18 to 20 hrs followed by re-plating on tryptic soy agar plates at 37 degC for 18 hrs by broth microdilution assay. The class given is functional.
Data set [39] deals with Staphylococcus aureus. Description: Resistance index, ratio of MIC for antibacterial activity against methicillin-resistant Staphylococcus aureus USA400 treated repeatedly over 9 passages to MIC for antibacterial activity against methicillin-resistant Staphylococcus aureus USA400 treated for 18 to 20 hrs by broth microdilution assay. The class given is functional.
The subject of data set [40] is Staphylococcus aureus. The data set is described as follows: Resistance index, ratio of MIC for antibacterial activity against methicillin-resistant Staphylococcus aureus USA400 treated over 1 passage to MIC for antibacterial activity against methicillin-resistant Staphylococcus aureus USA400 treated for 18 to 20 hrs by broth microdilution assay. Type of data set: functional.

In brackets after ≈: the same amount, converted by molar mass.

Consider `C/C(=N\NC(=N)N)c1sc(-c2ccc(C#Cc3cccs3)cc2)nc1C`, for which the MIC (in general, the least concentration at which growth counts as inhibited) in the data set with Enterococcus faecium [1] was 4 µg/mL (≈ 10.5 µM); with Staphylococcus aureus [4] it was 1 µg/mL (≈ 2.63 µM); with Escherichia coli [6], above 64 µg/mL; in the data set on Staphylococcus aureus [8] it was 2 µg/mL (≈ 5.27 µM); with Pseudomonas aeruginosa [9] it was above 64 µg/mL; in the data set with Listeria monocytogenes [11], 8 µg/mL (≈ 21.1 µM). Also, the MIC with Staphylococcus aureus [12] was 1 µg/mL (≈ 2.63 µM); in the data set on Acinetobacter baumannii [13] it was above 64 µg/mL; in the data set with Streptococcus pneumoniae [14] it was 4 µg/mL (≈ 10.5 µM); in the data set with Staphylococcus aureus [15], 2 µg/mL (≈ 5.27 µM); in the data set with Enterococcus faecalis [17] it was 64 µg/mL (≈ 169 µM); with Staphylococcus aureus [19], 2 µg/mL (≈ 5.27 µM). The MIC is 4 µg/mL (≈ 10.5 µM) with Streptococcus pneumoniae [22]; 1 µg/mL (≈ 2.63 µM) in data set [23]; 4 µg/mL (≈ 10.5 µM) with Staphylococcus aureus [25]; 8 µg/mL (≈ 21.1 µM) in the data set with Staphylococcus aureus [28]; 8 µg/mL (≈ 21.1 µM) in the data set with Staphylococcus aureus [29]; above 64 µg/mL in the data set on Klebsiella pneumoniae [30]. In addition, the MIC in the data set with Escherichia coli [36] came to 64 µg/mL (≈ 169 µM). Besides, the MBC (as a rule, the lowest tested concentration that kills the bacteria rather than only halting them) in the data set on Staphylococcus aureus [2] is 16 µg/mL (≈ 42.2 µM); in the data set with Pseudomonas aeruginosa [3], above 64 µg/mL; with Listeria monocytogenes [5] it was 32 µg/mL (≈ 84.3 µM); in the data set with Staphylococcus aureus [7], 8 µg/mL (≈ 21.1 µM); in the data set with Enterococcus faecalis [16], above 64 µg/mL; with Staphylococcus aureus [18], 4 µg/mL (≈ 10.5 µM). Besides, the MBC with Streptococcus pneumoniae [20] is 8 µg/mL (≈ 21.1 µM); with Staphylococcus aureus [21], 4 µg/mL (≈ 10.5 µM); with Escherichia coli [24], above 64 µg/mL; with Streptococcus pneumoniae [26], 4 µg/mL (≈ 10.5 µM); with Staphylococcus aureus [27] it was 16 µg/mL (≈ 42.2 µM); in the data set with Klebsiella pneumoniae [31], above 64 µg/mL. Besides, the MBC was 8 µg/mL (≈ 21.1 µM) with Enterococcus faecium [32]; 2 µg/mL (≈ 5.27 µM) in the data set with Staphylococcus aureus [33]; 1 µg/mL (≈ 2.63 µM) in data set [34]; 2 µg/mL (≈ 5.27 µM) with Staphylococcus aureus [35]; above 64 µg/mL in the data set with Escherichia coli [37]; above 64 µg/mL in the data set on Acinetobacter baumannii [38]. In addition, in data set [10], the kinetic solubility (commonly solubility judged after dilution from a stock solution rather than from solid) at 2 h came out at 50 µM (≈ 19 µg/mL). Further, the Activity result with J774 was “Toxic”.
Take `CO[C@H]1/C=C/O[C@@]2(C)Oc3c(C)c(O)c4c(O)c(c(/C=N/N5CCN(C)CC5)c(O)c4c3C2=O)NC(=O)/C(C)=C\C=C\[C@H](C)[C@H](O)[C@@H](C)[C@@H](O)[C@@H](C)[C@H](OC(C)=O)[C@@H]1C` [RIFAMPIN]: the Ratio is listed as above 500000 in the data set on Staphylococcus aureus [39] and 29 in the data set with Staphylococcus aureus [40].
